Reference: US9192164B2, “Membrane sterilization” (SABAN VENTURES PTY LIMITED, priority 2005, dated 2015)
Like-named read-outs stand apart in the source and are kept apart here.

Columns and labels:
[1] = rabbits, EU criteria (ECETOC, 1996); solution of 35% or less; cited from earlier work
[2] = test system: bio burden; conditions: for Log reduction in bio burden: KIMGUARD bag, air RH=20% at 12 m/s over exterior

## hydrogen peroxide [H2O2]
[1]
  Classification as skin irritant: would not be classified as skin irritants
[2]; Expt A: initial H2O2 10%, nebulizer 2/18 sec ON/Off for 2 mins, total exposure 5 mins, 40 °C in bag
  Pennicylinders Plate count: 0
[2]; Expt A: initial H2O2 10%, nebulizer 2/18 sec ON/Off for 2 mins, total exposure 5 mins, 40 °C in bag, 0.0338 g/L delivered
  Pennicylinders Log reduction of bio burden: 6.0
[2]; Expt B: initial H2O2 30%, nebulizer 8/12 sec ON/Off for 2 mins, total exposure 2 mins, 44 °C in bag
  Pennicylinders Plate count: 0
[2]; Expt B: initial H2O2 30%, nebulizer 8/12 sec ON/Off for 2 mins, total exposure 2 mins, 44 °C in bag, 0.246 g/L delivered
  Pennicylinders Log reduction of bio burden: 6.0
[2]; within 2 minutes nebulising a 30% peroxide solution
  Log reduction in bio burden: 6
[2]; within 5 minutes nebulising a 10% peroxide solution
  Log reduction in bio burden: 6
